Experimental data taken from US12121514B2, “Nonselective metabotropic glutamate receptor activators for treatment of attention deficit disorder and 22Q syndrome” (THE CHILDREN'S HOSPITAL OF PHILADELPHIA, priority 2015, dated 2024).

Tested on: adolescent subjects with ADHD and at least one genetic alteration in an mGluR network gene
Experiment: Vanderbilt ADHD score (items 1-18, parent), Phase Ib trial of NFC-1
Type: in vivo, human
Details: relative to pre-study (enrollment) baseline
Description: The Vanderbilt Rating Scale is a measure that can be completed by parents or teachers (separate forms, see Vanderbilt Rating Scale Parents and Vanderbilt Rating Scale Teachers). The Vanderbilt scale rates the child's behavior on items such as attention, finishing tasks, hyperactivity, difficulty waiting, and measures of conduct or oppositional defiant disorders—as well as measures of overall school performance and interactions with others. The first 18 items on the Vanderbilt scale correspond to those of the ADHD Rating Scale IV above while the Vanderbilt scale also includes items 19-47 related to other mental disorders including ODD (items 19-26), conduct disorder (items 27-40), anxiety (items 41, 42, and 47), and depression (items 43-46). Each of the behavioral assessment items on the Vanderbilt Scale are rated 0, 1, 2, or 3, with 0=never occurring; 1=occasionally, 2=often, and 3=very often. Thus, the ADHD Rating Scale IV, ADHD Rating Scale V, and items 1-18 of the Vanderbilt Rating Scale are equivalent scales, while additional items on the Vanderbilt Scale assess co-morbid phenotypes and disorders.
Each of the items are rated on a scale of 0, 1, 2, or 3, with 0=never; 1=occasionally, 2=often, and 3=very often. A total score of 0 to 54 is computed based on the answers to the 18 questions.
As used herein an “ADHD rating scale score,” “ADHD score” or “Vanderbilt ADHD score” are used interchangeably to refer to the computed score of the 18 items of the ADHD Rating Scale IV or V or the first 18 items of the Vanderbilt Rating Scale in any of their associated versions, e.g., for parent, teacher, or clinician to complete, and for a pediatric subject or adult subject. Clinical trials may assess the impact of drug or placebo on the ADHD score or Vanderbilt ADHD score (i.e. the score of 0 to 54 based on the first 18 items in the ADHD or Vanderbilt rating scale). In some cases, results of a clinical trial population may be analyzed by comparing the average score or a percentage change in score over time of administration of drug.
An open-label Phase Ib clinical trial was initiated to investigate the safety, pharmacokinetics and efficacy of NFC-1 (fasoracetam monohydrate) in adolescent subjects between the ages of 12 and 17 previously diagnosed with ADHD who also had at least one genetic alteration in an mGluR network gene.
Dose-escalation phase of the trial followed the PK and initial safety assessment and ran over a 5-week period. During week 1, all subjects were administered placebo capsules twice daily. After one week of placebo treatment, patients were started on 50 mg bid NFC-1 for 1 week. If safety and responsiveness data from prior dose level of fasoracetam indicated it was appropriate, subjects were then escalated to the next higher dose (100, 200, or 400 mg). […] Of the 30 trial subjects, 3 received a maximum dose of 100 mg, 9 received a maximum dose of 200 mg, and the remaining 18 received a maximum dose of 400 mg.
All efficacy assessments, except actigraphy, were made at study enrollment (“enrollment baseline”) and again, including actigraphy, once-per-week for the placebo week (“week 1” or “placebo baseline”) and at each of the 4 weeks of NFC-1 treatment. These efficacy measures include items 1-18 of the Vanderbilt scale assessing symptoms related to inattentiveness and hyperactivity-impulsiveness as well as additional questions 19-47 of the Vanderbilt scale assessing other behavioral symptoms (conducted by parent), actigraphy for quantitative measurement of activity, Quotient® ADHD test for objective measurement of micro-motion and shifts in attention state, PERMP-Math test, and CGI-I and CGI-S for assessment of global functioning. […]

[1] = Tier 1, Week 5, up to 400 mg bid
[2] = Tier 2, Week 3, up to 100 mg bid
[3] = Tier 2, Week 4, up to 200 mg bid
[4] = Tier 2, Week 5, up to 400 mg bid
[5] = Tier 3, Week 3, up to 100 mg bid
[6] = Tier 3, Week 4, up to 200 mg bid
[7] = Tier 3, Week 5, up to 400 mg bid

In the case of `O=C1CC[C@H](C(=O)N2CCCCC2)N1` [NFC-1, fasoracetam monohydrate], the “Percent of subjects with improvement in Vanderbilt ADHD score (at least 25% decrease)” value (Tier 1, Week 4, up to 200 mg bid) is reported as 88%, the “Percent of subjects completing the dose escalation to 400 mg bid that show improvement in Vanderbilt ADHD scores (at least 25% decrease)” value (Tier 1, Week 5, 400 mg bid) is reported as 89% and the “Percent of subjects completing the dose escalation to 400 mg bid that show robust improvement in Vanderbilt ADHD scores (at least 40% decrease)” value (Tier 1, Week 5, 400 mg bid) is reported as 67%. The “Percent of subjects demonstrating robust improvement in Vanderbilt ADHD score (at least 40% decrease)” value [1] was 63%, the “Percent of subjects with improvement in Vanderbilt ADHD score (at least 25% decrease)” value [1] was 75% and the “Percent of subjects completing the dose escalation to 400 mg bid that show improvement in Vanderbilt ADHD scores (at least 25% decrease)” value (Tier 2, Week 2, 50 mg bid) was 20%. For the same molecule, the “Percent of subjects completing the dose escalation to 400 mg bid that show robust improvement in Vanderbilt ADHD scores (at least 40% decrease)” value (Tier 2, Week 2, 50 mg bid) was 20%, the “Percent of subjects demonstrating robust improvement in Vanderbilt ADHD score (at least 40% decrease)” value (Tier 2, Week 2, 50 mg bid) was 14% and the “Percent of subjects with improvement in Vanderbilt ADHD score (at least 25% decrease)” value (Tier 2, Week 2, 50 mg bid) was 29%. The “Percent of subjects completing the dose escalation to 400 mg bid that show improvement in Vanderbilt ADHD scores (at least 25% decrease)” value (Tier 2, Week 3, 100 mg bid) was 20%, the “Percent of subjects completing the dose escalation to 400 mg bid that show robust improvement in Vanderbilt ADHD scores (at least 40% decrease)” value (Tier 2, Week 3, 100 mg bid) was 0% and the “Percent of subjects demonstrating robust improvement in Vanderbilt ADHD score (at least 40% decrease)” value [2] was 0%. The “Percent of subjects with improvement in Vanderbilt ADHD score (at least 25% decrease)” value [2] was 14%, the “Percent of subjects completing the dose escalation to 400 mg bid that show improvement in Vanderbilt ADHD scores (at least 25% decrease)” value (Tier 2, Week 4, 200 mg bid) was 20% and the “Percent of subjects completing the dose escalation to 400 mg bid that show robust improvement in Vanderbilt ADHD scores (at least 40% decrease)” value (Tier 2, Week 4, 200 mg bid) was 20%. For the same molecule, the “Percent of subjects demonstrating robust improvement in Vanderbilt ADHD score (at least 40% decrease)” value [3] was 14%, the “Percent of subjects with improvement in Vanderbilt ADHD score (at least 25% decrease)” value [3] was 43% and the “Percent of subjects completing the dose escalation to 400 mg bid that show improvement in Vanderbilt ADHD scores (at least 25% decrease)” value (Tier 2, Week 5, 400 mg bid) was 80%. The “Percent of subjects completing the dose escalation to 400 mg bid that show robust improvement in Vanderbilt ADHD scores (at least 40% decrease)” value (Tier 2, Week 5, 400 mg bid) was 20%, the “Percent of subjects demonstrating robust improvement in Vanderbilt ADHD score (at least 40% decrease)” value [4] was 29% and the “Percent of subjects with improvement in Vanderbilt ADHD score (at least 25% decrease)” value [4] was 86%. The “Percent of subjects completing the dose escalation to 400 mg bid that show improvement in Vanderbilt ADHD scores (at least 25% decrease)” value (Tier 3, Week 2, 50 mg bid) was 33%, the “Percent of subjects completing the dose escalation to 400 mg bid that show robust improvement in Vanderbilt ADHD scores (at least 40% decrease)” value (Tier 3, Week 2, 50 mg bid) was 33% and the “Percent of subjects demonstrating robust improvement in Vanderbilt ADHD score (at least 40% decrease)” value (Tier 3, Week 2, 50 mg bid) was 50%. For the same molecule, the “Percent of subjects with improvement in Vanderbilt ADHD score (at least 25% decrease)” value (Tier 3, Week 2, 50 mg bid) was 50%, the “Percent of subjects completing the dose escalation to 400 mg bid that show improvement in Vanderbilt ADHD scores (at least 25% decrease)” value (Tier 3, Week 3, 100 mg bid) was 0% and the “Percent of subjects completing the dose escalation to 400 mg bid that show robust improvement in Vanderbilt ADHD scores (at least 40% decrease)” value (Tier 3, Week 3, 100 mg bid) was 0%. For the same molecule, the “Percent of subjects demonstrating robust improvement in Vanderbilt ADHD score (at least 40% decrease)” value [5] was 40%, the “Percent of subjects with improvement in Vanderbilt ADHD score (at least 25% decrease)” value [5] was 40% and the “Percent of subjects completing the dose escalation to 400 mg bid that show improvement in Vanderbilt ADHD scores (at least 25% decrease)” value (Tier 3, Week 4, 200 mg bid) was 0%. For the same molecule, the “Percent of subjects completing the dose escalation to 400 mg bid that show robust improvement in Vanderbilt ADHD scores (at least 40% decrease)” value (Tier 3, Week 4, 200 mg bid) was 0%, the “Percent of subjects demonstrating robust improvement in Vanderbilt ADHD score (at least 40% decrease)” value [6] was 40% and the “Percent of subjects with improvement in Vanderbilt ADHD score (at least 25% decrease)” value [6] was 40%. The “Percent of subjects completing the dose escalation to 400 mg bid that show improvement in Vanderbilt ADHD scores (at least 25% decrease)” value (Tier 3, Week 5, 400 mg bid) was 67%, the “Percent of subjects completing the dose escalation to 400 mg bid that show robust improvement in Vanderbilt ADHD scores (at least 40% decrease)” value (Tier 3, Week 5, 400 mg bid) was 33% and the “Percent of subjects demonstrating robust improvement in Vanderbilt ADHD score (at least 40% decrease)” value [7] was 50%. The “Percent of subjects with improvement in Vanderbilt ADHD score (at least 25% decrease)” value [7] was 75%.
